Structures can show the parent of a compound that is named as a salt.
Biological target: T1, recombinant sEH (Homo sapiens, UniProt P34913)
T1 construct: made in house; host or cells: Sf9 insect cells
T1 sequence (P34913 1-555): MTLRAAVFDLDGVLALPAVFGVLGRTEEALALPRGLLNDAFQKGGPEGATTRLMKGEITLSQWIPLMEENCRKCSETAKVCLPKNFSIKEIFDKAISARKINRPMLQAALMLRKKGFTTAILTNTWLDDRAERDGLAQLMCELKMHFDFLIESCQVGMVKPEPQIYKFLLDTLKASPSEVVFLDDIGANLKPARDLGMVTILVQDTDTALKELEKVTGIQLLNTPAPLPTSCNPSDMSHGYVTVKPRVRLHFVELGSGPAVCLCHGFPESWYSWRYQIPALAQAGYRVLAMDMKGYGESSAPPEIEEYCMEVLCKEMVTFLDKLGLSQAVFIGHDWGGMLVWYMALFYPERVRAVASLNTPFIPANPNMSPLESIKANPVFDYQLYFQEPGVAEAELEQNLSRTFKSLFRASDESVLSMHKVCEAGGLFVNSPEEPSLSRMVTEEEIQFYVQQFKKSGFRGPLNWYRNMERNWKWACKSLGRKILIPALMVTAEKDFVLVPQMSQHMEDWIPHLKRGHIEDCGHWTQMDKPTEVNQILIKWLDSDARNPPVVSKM
Test: biochemical screening assay for inhibition of soluble epoxide hydrolase (fluorometric, Phome substrate)
In short: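 Human sEH from Sf9 cells (2 nM final) was pre-incubated 15 min at 30 °C with compound (0.0001–10 μM), then reacted 60 min at 30 °C with 5 μM Phome in 25 mM Hepes/0.01% albumin. Fluorescence of released 6-methoxy-2-naphthaldehyde was read before substrate and at end; IC50 from % inhibition.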

| SMILES | IC50 [nM] |
| --- | --- |
| Cc1ncccc1O[C@H]1CO[C@H]2[C@@H]1OC[C@@H]2NC(=O)NCCCn1nc(C(F)(F)F)cc1C [Example 243, 1-[(3S,3aR,6S,6aS)-6-(2-Methyl-pyridin-3-yloxy)-hexahydro-furo[3,2-b]furan-3-yl]-3-[3-(5-methyl-3-tri-fluoromethyl-pyrazol-1-yl)-propyl]-urea] | 41 |
| Cc1ncccc1O[C@H]1CO[C@H]2[C@@H]1OC[C@@H]2NC(=O)NC1CCCNC1 (stereo partly drawn) [Example 82, 1-[(3S,3aR,6S,6aS)-6-(2-methyl-pyridin-3-yloxy)-hexahydro-furo[3,2-b]furan-3-yl]-3-piperidin-3-yl-urea; hydrochloride] | 2620 |
| O=C(Nc1ccccc1-c1ccccc1)N[C@H]1CO[C@H]2[C@@H]1OC[C@@H]2C#Cc1ccsc1 [Example 307, 1-Biphenyl-2-yl-3-((3S,3aR,6S,6aR)-6-thiophen-3-ylethynyl-hexahydro-furo[3,2-b]furan-3-yl)-urea] | 59 |
| O=C(NCCc1cccs1)N[C@H]1CO[C@H]2[C@@H]1OC[C@@H]2/C=C\c1ccccc1 [Example 330, 1-[(3S,3aR,6S,6aR)-6-((Z)-Styryl)-hexahydro-furo[3,2-b]furan-3-yl]-3-(2-thiophen-2-yl-ethyl)-urea] | 69 |
| O=C(Nc1ccc2c(c1)OCCO2)N[C@H]1CO[C@H]2[C@@H]1OC[C@@H]2/C=C\c1ccccc1 [Example 318, 1-(2,3-Dihydro-benzo[1,4]dioxin-6-yl)-3-[(3S,3aR,6S,6aR)-6-((Z)-styryl)-hexahydro-furo[3,2-b]furan-3-yl]-urea] | 227 |
| O=C(Nc1cccc(F)c1)N[C@H]1CO[C@H]2[C@@H]1OC[C@@H]2C#Cc1ccsc1 [Example 311, 1-(3-Fluoro-phenyl)-3-((3S,3aR,6S,6aR)-6-thiophen-3-ylethynyl-hexahydro-furo[3,2-b]furan-3-yl)-urea] | 146 |
| O=C(Nc1ccc(F)cc1)NC1COC2C(CCc3ccsc3)COC12 [Example 366, 1-(4-Fluoro-phenyl)-3-[(3S,3aR,6R)-6-((S)-2-thiophen-3-yl-ethyl)-hexa-hydro-furo[3,2-b]furan-3-yl]-urea] | 9 |
| C[C@H](NC(=O)N[C@H]1CO[C@H]2[C@@H]1OC[C@@H]2Oc1ccc(F)cc1)c1ccc(F)cc1 [Example 160, 1-[(3S,3aR,6S,6aS)-6-(4-Fluoro-phenoxy)-hexahydro-furo[3,2-b]furan-3-yl]-3-[(S)-1-(4-fluoro-phenyl)-ethyl]-urea] | 31 |
| CC1CSc2c(O[C@H]3CO[C@H]4[C@@H]3OC[C@@H]4NC(=O)NC3CCCCC3)csc21 (stereo partly drawn) [Example 145, 1-Cyclohexyl-3-[(3S,3aR,6S,6aS)-6-(6-methyl-5,6-dihydro-thieno[3,2-b]thiophen-3-yloxy)-hexahydro-furo[3,2-b]furan-3-yl]-urea] | 14 |
| O=C(NC1CCCCC1)N[C@H]1CO[C@H]2[C@@H]1OC[C@@H]2Oc1ccccc1F [Example 95, 1-Cyclohexyl-3-[(3S,3aR,6S,6aS)-6-(2-fluoro-phenoxy)-hexahydro-furo[3,2-b]furan-3-yl]-urea] | 5 |
| O=C(NC1CCCCC1)N[C@H]1CO[C@H]2[C@@H]1OC[C@@H]2Oc1ccc2c(c1)C(=O)CC2 [Example 118, 1-Cyclohexyl-3-[(3S,3aR,6S,6aS)-6-(3-oxo-indan-5-yloxy)-hexahydro-furo[3,2-b]furan-3-yl]-urea] | 3 |
| Cc1ccc(O[C@H]2CO[C@H]3[C@@H]2OC[C@@H]3NC(=O)NC2CCCCC2)cn1 [Example 28, 1-Cyclohexyl-3-[(3S,3aR,6S,6aS)-6-(6-methyl-pyridin-3-yloxy)-hexahydro-furo[3,2-b]furan-3-yl]-urea] | 8 |
| Cc1ncccc1O[C@H]1CO[C@H]2[C@@H]1OC[C@@H]2NC(=O)NCC1COc2ccccc2O1 (stereo partly drawn) [Example 196, 1-(2,3-Dihydro-benzo[1,4]dioxin-2-ylmethyl)-3-[(3S,3aR,6S,6aS)-6-(2-methyl-pyridin-3-yloxy)-hexahydro-furo[3,2-b]furan-3-yl]-urea] | 26 |
| Cc1ncccc1O[C@H]1CO[C@H]2[C@@H]1OC[C@@H]2NC(=O)NC(C)(C)c1ccncc1 [Example 250, 1-(1-Methyl-1-pyridin-4-yl-ethyl)-3-[(3S,3aR,6S,6aS)-6-(2-methyl-pyridin-3-yloxy)-hexahydro-furo[3,2-b]furan-3-yl]-urea] | 3120 |
| O=C(NC1CCCCC1)N[C@H]1CO[C@H]2[C@@H]1OC[C@@H]2Oc1cnc(Cl)c(F)c1 [Example 64, 1-[(3S,3aR,6S,6aS)-6-(6-Chloro-5-fluoro-pyridin-3-yloxy)-hexahydro-furo[3,2-b]furan-3-yl]-3-cyclohexyl-urea] | 2 |
| O=C(NC1CCCCC1)N[C@H]1CO[C@H]2[C@@H]1OC[C@@H]2Oc1cncnc1 [Example 44, 1-Cyclohexyl-3-[(3S,3aR,6S,6aS)-6-(pyrimidin-5-yloxy)-hexahydro-furo[3,2-b]furan-3-yl]-urea] | 42 |

| SMILES | IC50 [nM] |
| --- | --- |
| Cc1ncccc1O[C@H]1CO[C@H]2[C@@H]1OC[C@@H]2NC(=O)NCCC1CCCCO1 (stereo partly drawn) [Example 235, 1-[(3S,3aR,6S,6aS)-6-(2-Methyl-pyridin-3-yloxy)-hexahydro-furo[3,2-b]furan-3-yl]-3-[2-(tetrahydro-pyran-2-yl)-ethyl]-urea] | 86 |
| N#CC1COC2C(NC(=O)Nc3ccc(Cl)c(Cl)c3)COC12 (stereo not shown) [Example 384] | 61 |
| Cc1ncccc1O[C@H]1CO[C@H]2[C@@H]1OC[C@@H]2NC(=O)NCC1CN(C)CCO1 (stereo partly drawn) [Example 219, 1-(4-Methyl-morpholin-2-ylmethyl)-3-[(3S,3aR,6S,6aS)-6-(2-methyl-pyridin-3-yloxy)-hexahydro-furo[3,2-b]furan-3-yl]-urea] | 1900 |
| O=C(Nc1ccc2c(c1)OCCO2)N[C@H]1CO[C@@H]2[C@@H](CCc3ccccc3)CO[C@@H]21 [Example 369, 1-(2,3-Dihydro-benzo[1,4]dioxin-6-yl)-3-((3S,3aR,6S,6aR)-6-phenethyl-hexahydro-furo[3,2-b]furan-3-yl)-urea] | 22 |
| CN(C)C[C@H]1CO[C@H]2[C@@H]1OC[C@@H]2NC(=O)NC1CCCCC1 [Example 9, 1-cyclohexyl-3-((3S,3aR,6S,6aR)-6-dimethylaminomethyl-hexahydro-furo[3,2-b]furan-3-yl)-urea; trifluoroacetate] | 450 |
| COC[C@@H](NC(=O)N[C@H]1CO[C@H]2[C@@H]1OC[C@@H]2Oc1cccnc1C)c1ccccc1 [Example 237, 1-((S)-2-Methoxy-1-phenyl-ethyl)-3-[(3S,3aR,6S,6aS)-6-(2-methyl-pyridin-3-yloxy)-hexahydro-furo[3,2-b]furan-3-yl]-urea] | 177 |
| O=C(NC1CCCCC1)N[C@H]1CO[C@H]2[C@@H]1OC[C@@H]2Nc1nccs1 [Example 13, 1-Cyclohexyl-3-[(3S,3aR,6S,6aR)-6-(thiazol-2-ylamino)-hexahydro-furo[3,2-b]furan-3-yl]-urea] | 167 |
| CC(C)(C)c1ccc(O[C@H]2CO[C@H]3[C@@H]2OC[C@@H]3NC(=O)NC2CCCCC2)cc1 [Example 103, 1-[(3S,3aR,6S,6aS)-6-(4-tert-Butyl-phenoxy)-hexahydro-furo[3,2-b]furan-3-yl]-3-cyclohexyl-urea] | 7 |
| Cc1ncccc1OC1COC2C(NC(=O)NC34CC5CC(CC(O)(C5)C3)C4)COC12 [Example 193, 1-((1R,3S,5R,7S)-3-Hydroxy-adamantan-1-yl)-3-[(3S,3aR,6S,6aS)-6-(2-methyl-pyridin-3-yloxy)-hexahydro-furo[3,2-b]furan-3-yl]-urea] | 51 |
| Cc1cc(C)cc(NC(=O)N[C@H]2CO[C@H]3[C@H](CCc4ccccc4)CO[C@@H]32)c1 [Example 353, 1-(3,5-Dimethyl-phenyl)-3-[(3S,3aR,6R)-6-((S)-phenethyl)-hexa-hydro-furo[3,2-b]furan-3-yl]-urea] | 17 |
| O=C(Nc1ccc(OC(F)(F)F)cc1)N[C@H]1CO[C@@H]2[C@@H](CCc3ccccc3)CO[C@@H]21 [Example 372, 1-((3S,3aR,6S,6aR)-6-Phenethyl-hexahydro-furo[3,2-b]furan-3-yl)-3-(4-trifluoromethoxy-phenyl)-urea] | 11 |
| O=C(NC1CCCCC1)N[C@H]1CO[C@H]2[C@@H]1OC[C@@H]2OCC(F)(F)F [Example 19, 1-Cyclohexyl-3-[(3S,3aR,6S,6aS)-6-(2,2,2-trifluoro-ethoxy)-hexahydro-furo[3,2-b]furan-3-yl]-urea] | 9 |
| CCCCOc1ccc(NC(=O)NC2COC3C(CCc4ccccc4)COC23)cc1 [Example 351, 1-(4-Butoxy-phenyl)-3-[(3S,3aR,6R)-6-((S)-phenethyl)-hexahydro-furo[3,2-b]furan-3-yl]-urea] | 161 |
| Cc1ncccc1O[C@H]1CO[C@H]2[C@@H]1OC[C@@H]2NC(=O)NC(C)(C)c1ccc(F)cc1 [Example 204, 1-[1-(4-Fluoro-phenyl)-1-methyl-ethyl]-3-[(3S,3aR,6S,6aS)-6-(2-methyl-pyridin-3-yloxy)-hexahydro-furo[3,2-b]furan-3-yl]-urea] | 734 |
| O=C(NC1CCCCC1)N[C@H]1CO[C@H]2[C@@H]1OC[C@@H]2Oc1cccc2ccc(N3CCCC3)nc12 [Example 137, 1-Cyclohexyl-3-[(3S,3aR,6S,6aS)-6-(2-pyrrolidin-1-yl-quinolin-8-yloxy)-hexahydro-furo[3,2-b]furan-3-yl]-urea; trifluoroacetate] | 4 |
